Patent US8388931B2, “99m Tc-labeled triphenylphosphonium derivative contrasting agents and molecular probes for early detection and imaging of breast tumors” (priority 2008, dated 2013)

Columns and labels:
[1] = system: DMBA-induced breast carcinoma; test: In vivo gamma camera imaging of DMBA-induced breast carcinoma in rats; set-up: species or system rats (female Sprague Dawley); conditions: longitudinal experiment, at the time of detection
Experimental: The animal protocol was approved by institutional IACUC review and followed NIH guidelines. The rat model of DMBA-induced breast carcinoma was used.
As an initial feasibility study, rats were induced with 65 mg/kg DMBA dissolved in sesame oil via a single oral gavage to the stomach. […] Static images were acquired on a GE XRT gamma camera using a high-resolution parallel-hole collimator, 512×512 matrix size, 22.5×22.5 cm field of view, 140±15 keV energy window, 100 k counts. Unexpectedly, apart from the established palpable carcinomas, additional small (millimeter size) tumors were discovered by this imaging technique in the same animals. This finding promoted a longitudinal study to investigate the early detection of neoplastic growth using ^99mTc-Mito10-MAG3.
Six 48-day-old female rats were injected with 65 mg/kg DMBA. At each week after DMBA induction, the rats were imaged using the following protocol. Each rat was anesthetized with 1.6% isoflurane in room air supplemented with oxygen. […] Dynamic images were continuously acquired at one frame per min for 90 min using the imaging parameters set forth hereinabove. The weekly imaging regiment was continued for all six rats until palpable tumors became detectable, which typically takes place between seven to nine weeks after the administration of DMBA. Due to the relatively short physical half-life of ^99mTc (6 hr), no residual signal, therefore, no cross-contamination is detectable from the previous injection the week before.
(§1) ^99mTc-MIBI of clinical formulation was purchased from Bristol Myers Squibb. […] Dynamic images were acquired in identical fashion following 99mTc-MIBI injection.
The female Sprague Dawley rats have six pairs of mammary glands, among which glands a and b are away from the hepatic/gastrointestinal region. (FIG. 9, Panel A). Since the typical biodistribution of a lipophilic radiopharmaceutical in the abdominal region precludes reliable imaging of breast tissues below the diaphragm, mammary glands shown in Panels C, D, E and F were excluded from the data analysis. This exclusion also was based on the fact that such spatial distribution of mammary glands is irrelevant to that of the human anatomy.
Imaging data analysis was carried out using an inbuilt software, by carefully drawing a region of interest (ROI) on the tumor site to determine the radioactivity counts in the ROI. […] Radioactivity counts were determined in each ROI. Tumor-to-normal and tumor-to-muscle ratios were calculated as the count ratio between the two ROIs.
The rats were sacrificed by CO2 asphyxiation and the number and location of the mammary tumors were recorded at necropsy. The tumors were dissected, with the diameter and weight measured and documented. […]

[2] = Comparative study: myocardial and hepatic uptake of 99mTc-MIBI versus 99mTc-Mito10-MAG3; type: in vivo, rats; conditions: rat, in vivo
Experimental: as §1
In a comparative study, the myocardial uptake of ^99mTc-MIBI peaked at 2.70±0.4% ID/g within minutes after injection, and remained above 2.41±0.3% ID/g for at least 90 min. Comparatively, the myocardial uptake level of ^99mTc-Mito10-MAG 3 is 10, 40, and 120 fold lower than the uptake level of ^99mTc-MIBI at 3, 10 and 30 min after injection. The hepatic uptake of ^99mTc-MIBI was at 0.37±0.14% ID/g at 30 min after injection.

[99Tc].[C-]#[N+]CC(C)(C)OC.[C-]#[N+]CC(C)(C)OC.[C-]#[N+]CC(C)(C)OC.[C-]#[N+]CC(C)(C)OC.[C-]#[N+]CC(C)(C)OC.[C-]#[N+]CC(C)(C)OC [^99mTc-MIBI, ^99mTc-methoxyisobutylisonitrile, reference compound]
tumor-to-normal ratio ([1]; ROI count ratio tumor vs contralateral normal mammary gland): 2.04±0.49 | tumor-to-muscle ratio ([1]; ROI count ratio tumor vs thigh muscle): 5.10±0.31 | peak myocardial uptake [2]: 2.70±0.4 % ID/g
